Where two headings read alike, the source gives them in different places. Marks after values point to notes of the source that are not given here.
Assays:
[1] = Urinary excretion of phenylbutyrate, benzoate and their conjugated products; nitrogen conjugation in 24 h urine; settings: for Total N excreted as conjugated products, % test meal: fraction of nitrogen content of test meal; for efficacy of conjugation (percent of dose recovered as conjugate in 24 h urine): given as sole treatments, highest dose; for Conjugation efficacy: nitrogen conjugated divided by amount of drug provided
Method: (§1) This was a randomized, three-arm, crossover study. Each arm was completed over a four-day period with a washout period of at least 7 days between any two of the treatment arms (FIG. 1). […] The treatments were designed to provide isomolar amount of drugs and the total daily dose was administered in three equally divided doses.
(§2) On day 1 of study arm 1, detailed medical history review and physical examination were performed. Complete blood count, comprehensive metabolic panel, plasma ammonia, and urinalysis (safety laboratory measurements) were performed. Urine pregnancy test was performed on all females. Meals prepared at the CNRC to provide 0.8 g·kg^−1·day^−1 protein and 32 kcal·kg^−1·day^−1 were given for next three days. The standardized protein and caloric intake allowed for comparison of nitrogen excretion among the three arms. Subjects were randomized to a predetermined treatment sequence and the first dose of the appropriate medication was administered under supervision. Subjects took the study medication with meals for three days (08:00 breakfast; 13:00 lunch; 19:00 dinner) (FIG. 1). […] On day 3, subjects omitted the 19:00 dose of the medication to prevent interference with the analysis on day 4 from metabolite conjugates from the previous day. On day 4, fasting blood sample was obtained for the determination of plasma amino acids and urea concentrations, background isotopic enrichments, basic metabolic profile, complete blood count, and plasma concentrations of phenylbutyrate, benzoate, PAGN, and HA. Urine was collected for measurements of urea, phenylbutyrate, benzoate, PAGN, and HA. At 0 hours, the test meal containing half of the daily dietary allowance of protein (0.4 g·kg^−1) was provided by a commercial liquid meal replacement (Ensure Plus, Abbott, Abbot Park, Ill.) and ^15N labeled spirulina (40 mg·kg^−1; ISOTEC, Miamisburg, Ohio). […] A dose of 40 mg·kg^−1 labeled ^15N-labeled spirulina was estimated to result in dietary enrichment of ˜5 mole percent excess. The morning meal, which was ingested in ˜10 minutes, was followed by a dose of study medication and an intravenous bolus dose of urea tracer, [^13C^18O]urea (6 mmol/subject; ISOTEC, Miamisburg, Ohio). Blood samples to determine concentrations and isotopic enrichments of the drugs and their conjugated products, as well as amino acids and urea were collected every 30 minutes for the first four hours and then hourly between hours 4 and 8 (FIG. 1). Urine was collected in four 2-hour batched periods during the eight hour admission period. […] The procedures for the study arms 2 and 3 were identical to those performed in arm 1.
(§3) Plasma and urinary drugs and their conjugated products as well as urea and amino acids were determined by mass spectrometry and quantitated based on the dilution of labeled internal standards. Total urinary nitrogen was determined using the micro-Kjeldahl method.
Plasma and urinary phenylbutyrate, PAA, and benzoate were determined as their pentafluorobenzyl derivatives by NCI-GC-MS; . [^2H5] […] 4-phenylbutyric acids (C/D/N Isotopes, Quebec, Canada) were used as internal standards. Underivatized PAGN and HA were measured by HESI LC-MS/MS; [^2H5] PAGN and [^2H5] HA (C/D/N Isotopes, Quebec, Canada) were used as internal standards.
Accordingly, these background values were subtracted from the values obtained during the treatment with phenylbutyrate and benzoate. The total amount of nitrogen conjugated was expressed as fraction of the test meal, by dividing by the total nitrogen content of the test meal. The conjugation of dietary nitrogen was calculated as the amount of ^15N conjugated by multiplying the total amount of nitrogen conjugated by the respective ^15N enrichment. For PAGN, the labeling of the amino and amido group were considered.

[2] = Urea metabolism and total urinary nitrogen excretion; assay type: in vivo, human; design: Urinary urea-^15N: unit not given here; settings: for Urinary N: N intake 9.81 g/d; for Urea production: [^13C^18O]urea tracer, day 4; for ^15N as % of test meal: urinary urea ^15N
Method: as §1, §2, §3
Plasma amino acids concentrations and enrichments were determined by HESI LC-MS/MS. A cell free U-[^13C^15N] amino acid mix was used as internal standard. Total urinary nitrogen was determined using the micro-Kjeldahl method.

[3] = day 4
[4] = plasma
Method: On day 1 of study arm 1, detailed medical history review and physical examination were performed. Complete blood count, comprehensive metabolic panel, plasma ammonia, and urinalysis (safety laboratory measurements) were performed. Urine pregnancy test was performed on all females. Meals prepared at the CNRC to provide 0.8 g·kg^−1·day^−1 protein and 32 kcal·kg^−1·day^−1 were given for next three days. The standardized protein and caloric intake allowed for comparison of nitrogen excretion among the three arms. Subjects were randomized to a predetermined treatment sequence and the first dose of the appropriate medication was administered under supervision. Subjects took the study medication with meals for three days (08:00 breakfast; 13:00 lunch; 19:00 dinner) (FIG. 1). […] On day 3, subjects omitted the 19:00 dose of the medication to prevent interference with the analysis on day 4 from metabolite conjugates from the previous day. On day 4, fasting blood sample was obtained for the determination of plasma amino acids and urea concentrations, background isotopic enrichments, basic metabolic profile, complete blood count, and plasma concentrations of phenylbutyrate, benzoate, PAGN, and HA. […]
Plasma amino acids concentrations and enrichments were determined by HESI LC-MS/MS. […] Total urinary nitrogen was determined using the micro-Kjeldahl method.

[5] = clinical; settings: human, in vivo
[6] = 24 h urine, ^15N labeled test meal
[7] = 24 h urine, background subtracted

Molecule: O=C(O)Cc1ccccc1 [PAA, phenylacetate]
- urinary excretion of unconjugated drug ([1]; 24 h urine): negligible

Molecule: O=C([O-])c1ccccc1.[Na+] [NaBz, sodium benzoate]
- % N excreted from daily intake ([2]; 24 h urine): 65.1%
- Urea N as a % total urinary N ([2]; 24 h urine): 65.1%
- Urinary Urea N ([2]; 24 h urine): 4.20 g/day
- Urinary N ([2]; 24 h urine): 6.38 g/day
- Urea production [2]: 197 µmol/kg/h
- ^15N as % of test meal ([2]; 24 h urine): 14.7%
- Urinary excretion of Bz ([1]; 24 h urine): 6.5 μmol/24 h
- Urinary excretion of Bz, % of dose ([1]; 24 h urine): 0.02 % of dose
- urinary excretion of unconjugated drug ([1]; 24 h urine): negligible
- Total 15N in conjugated products, % test meal [1, 6]: 1.51 % test meal
- Urinary HA (Conjugated ^15N Products) [1, 6]: 253.9 μmol/24 h
- Urinary excretion of HA [1, 7]: 16.4 mmol/24 h
- Total N excreted as conjugated products, % test meal ([1]; 24 h urine): 4.65 ^b % test meal
- Urinary excretion of HA, % of dose ([1]; 24 h urine, percent of benzoate dose recovered as HA): 66.1 % of dose
- efficacy of conjugation (percent of dose recovered as conjugate in 24 h urine) [1]: ~65%
- Conjugation efficacy ([1]; gram basis): 64.2^b mg N/g drug
- Conjugation efficacy ([1]; molar basis): 9.25^b mg N/mmol drug
- Bz AUC0-8 ([3]; plasma benzoate, 0 to 8 h): 301.7 µmol/L
- Bz Tmax ([3]; plasma benzoate): 1.6^b h
- Bz Tmax ([3]; plasma benzoate, listed as benzoate): ~1.5 h
- Benzoate Cmax and AUC0-8, NaBz arm relative to MIX arm ([3]; plasma): 4-5 times
- Cmax ([3]; read-out: Bz Cmax, plasma benzoate): 217 µM

Molecule: sodium phenylbutyrate [NaPB]
- % N excreted from daily intake ([2]; 24 h urine): 65.6%
- Urea N as a % total urinary N ([2]; 24 h urine): 63.6%
- Urinary Urea N ([2]; 24 h urine): 4.16 g/day
- Urinary N ([2]; 24 h urine): 6.47 g/day
- Urinary urea-^15N [2, 6]: 37.0
- Urea production [2]: 192 µmol/kg/h
- ^15N as % of test meal ([2]; 24 h urine): 15.2%
- leucine AUC0-8 ([4]; response to phenylbutyrate inclusion in the treatment, P=0.032): reduction
- tryptophan AUC0-8 ([4]; response to phenylbutyrate, P<0.001): reduction
- Total N excreted as conjugated products ([1]; 24 h urine): 30.7 mmol/24 h
- Urinary excretion of PAA ([1]; 24 h urine): 40.3 μmol/24 h
- Urinary excretion of PAA, % of dose ([1]; 24 h urine): 0.16 % of dose
- Urinary excretion of PB ([1]; 24 h urine): 32.3 μmol/24 h
- Urinary excretion of PB, % of dose ([1]; 24 h urine): 0.13 % of dose
- urinary excretion of unconjugated drug ([1]; 24 h urine): negligible
- Total 15N in conjugated products, % test meal [1, 6]: 1.62 % test meal
- Urinary 2&5-[^15N] PAGN [1, 6]: 38.9 μmol/24 h
- Urinary 2-[^15N] PAGN [1, 6]: 43.9 μmol/24 h
- Urinary excretion of PAGN [1, 7]: 15.3 mmol/24 h
- Total N excreted as conjugated products, % test meal ([1]; 24 h urine): 8.74 ^a % test meal
- Urinary excretion of PAGN, % of dose ([1]; 24 h urine, percent of phenylbutyrate dose recovered as PAGN): 61.5 % of dose
- efficacy of conjugation (percent of dose recovered as conjugate in 24 h urine) [1]: ~65%
- Conjugation efficacy ([1]; gram basis): 92.5^ab mg N/g drug
- Conjugation efficacy ([1]; molar basis): 17.2^a mg N/mmol drug

Molecule: O=C(O)CNC(=O)c1ccccc1 [hippuric acid]
- Tmax [5]: 2.2 h

From patent US11819483B2, “Combination therapy to treat urea cycle disorders” (Baylor College of Medicine, priority 2017, dated 2023)
